Reference: patent US10584115B2, “Substituted pyridine and pyrazine BMI-1 inhibitors” (PTC Therapeutics, Inc., priority 2013, dated 2020)
Where two headings read alike, the source gives them in different places.

Legend:
[1] = system: Bmi-1 protein; test: Sandwich ELISA Assay (Bmi-1 protein level in HT-1080 cells after compound treatment); type: cell-based
Method in brief: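 HT-1080 cells exposed to compounds for 40–48 h at 37 °C (0.5% DMSO final), then lysed. Bmi-1 in lysates measured by sandwich ELISA (mouse monoclonal capture, rabbit anti-Bmi-1 detection, HRP anti-rabbit, TMB), read at OD450 with OD570 reference against a recombinant Bmi-1 standard curve (0–8000 pg/mL).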

[2] = Table 1, Bmi-1 sandwich ELISA, read-out: ELISA EC50 value for Bmi-1 protein
[3] = read-out: ELISA EC50 value for Bmi-1 protein, Table 1, Bmi-1 sandwich ELISA

N#Cc1cc(Nc2ccc(OC(F)F)cc2)nc(-n2c(C3CC3)nc3c(F)cc(F)cc32)c1 [compound 475, 2-(2-cyclopropyl-4,6-difluoro-1H-benzimidazol-1-yl)-6-{[4-(difluoromethoxy)phenyl]amino}pyridine-4-carbonitrile] showed an EC50 [1, 2] of 10 to 100 nM and a melting point of 168 to 170 °C.

In the case of COc1ccc(Nc2cncc(-c3cccc4nc(C5CCC5)cn34)n2)cc1 [compound 116, 6-(2-cyclobutylimidazo[1,2-a]pyridin-5-yl)-N-(4-methoxyphenyl)pyrazin-2-amine], the EC50 [1, 2] is reported as 10 to 100 nM and the melting point is reported as 223 to 225 °C.

Cc1nc2ccc(F)cc2n1-c1cc(C#N)cc(Nc2ccc(C(F)(F)F)cc2)n1 [compound 261, 2-(6-fluoro-2-methyl-1H-benzimidazol-1-yl)-6-{[4-(trifluoromethyl)phenyl]amino}pyridine-4-carbonitrile] showed an EC50 [1, 2] of 10 to 100 nM and a melting point of 223 to 225 °C.

Work on Cc1nc2ccc(F)cn2c1-c1cncc(Nc2ccc(OC(F)F)cc2)n1 [compound 245, N-[4-(difluoromethoxy)phenyl]-6-(6-fluoro-2-methylimidazo[1,2-a]pyridin-3-yl)pyrazin-2-amine] yielded an EC50 [1, 2] of 1 to 10 nM and a melting point of 171 to 173 °C.

In the case of FC(F)(F)c1ccc(Nc2cncc(-c3c(C4CCC4)nc4ccccn34)n2)cc1 [compound 131, 6-(2-cyclobutylimidazo[1,2-a]pyridin-3-yl)-N-[4-(trifluoromethyl)phenyl]pyrazin-2-amine], the EC50 [1, 2] is reported as 1 to 10 nM and the melting point is reported as 218 to 219 °C.

For NC(=O)Nc1cc(Nc2ccc(C(F)(F)F)cc2)nc(-c2c(C3CC3)nc3ccc(F)cn23)c1 [compound 369, 1-[2-(2-cyclopropyl-6-fluoroimidazo[1,2-a]pyridin-3-yl)-6-{[4-(trifluoromethyl)phenyl]amino}pyridin-4-yl]urea], the EC50 [1, 3] was 100 to 3000 nM and the melting point was 232 to 235 °C.

FC(F)(F)Oc1ccc(Nc2cncc(-c3c(C4CC4)nc4ccc(C(F)(F)F)cn34)n2)cc1 [compound 252, 6-[2-cyclopropyl-6-(trifluoromethyl)imidazo[1,2-a]pyridin-3-yl]-N-[4-(trifluoromethoxy)phenyl]pyrazin-2-amine] gave an EC50 [1, 2] of 100 to 3000 nM and a melting point of 213 to 215 °C.

Work on Fc1ccc2nc(C(F)F)n(-c3cncc(Nc4ccc(C(F)(F)F)cc4)n3)c2c1 [compound 486, 6-[2-(difluoromethyl)-6-fluoro-1H-benzimidazol-1-yl]-N-[4-(trifluoromethyl)phenyl]pyrazin-2-amine] yielded an EC50 [1, 2] of 10 to 100 nM and a melting point of 197 to 199 °C.

With Fc1cc(Nc2cncc(-n3c(C(F)F)nc4ccccc43)n2)ccc1OC(F)F [compound 483, N-[4-(difluoromethoxy)-3-fluorophenyl]-6-[2-(difluoromethyl)-1H-benzimidazol-1-yl]pyrazin-2-amine] the EC50 [1, 2] was 10 to 100 nM and the melting point was 220 to 222 °C.

In the case of Fc1ccc2nc(C3CC3)c(-c3cncc(Nc4ccc(OC(F)F)c(F)c4)n3)n2c1 [compound 338, 6-(2-cyclopropyl-6-fluoroimidazo[1,2-a]pyridin-3-yl)-N-[4-(difluoromethoxy)-3-fluorophenyl]pyrazin-2-amine], the EC50 [1, 2] is reported as 1 to 10 nM and the melting point is reported as 173 to 175 °C.

Compound Nc1cc(Nc2ccc(OC(F)F)cc2)nc(-c2c(C3CC3)nc3ccc(F)cn23)c1 [compound 365, 6-(2-cyclopropyl-6-fluoroimidazo[1,2-a]pyridin-3-yl)-N^2-[4-(difluoromethoxy)phenyl]pyridine-2,4-diamine] has an EC50 [1, 2] of 100 to 3000 nM and a melting point of 185 to 186 °C.

With COc1ccc(Nc2cncc(-c3c(C)noc3C)n2)cn1 [compound 638, 6-(3,5-dimethyl-1,2-oxazol-4-yl)-N-(6-methoxypyridin-3-yl)pyrazin-2-amine] the EC50 [1, 2] was 100 to 3000 nM and the melting point was 173 to 174 °C.

Work on Cc1nc2ccccn2c1-c1cncc(Nc2ccc(C(F)(F)F)cc2)n1 [compound 202, 6-(2-methylimidazo[1,2-a]pyridin-3-yl)-N-[4-(trifluoromethyl)phenyl]pyrazin-2-amine] yielded an EC50 [1, 2] of less than 1 nM and a melting point of 180 to 182 °C.

With Cc1nc2cc(F)ccc2n1-c1cncc(Nc2ccc(C(F)(F)F)cc2)n1 [compound 204, 6-(5-fluoro-2-methyl-1H-benzimidazol-1-yl)-N-[4-(trifluoromethyl)phenyl]pyrazin-2-amine] the EC50 [1, 2] was 10 to 100 nM and the melting point was 272 to 275 °C.

Work on Cc1cccc(Nc2cncc(-n3c(C)nc4ccc(F)cc43)n2)c1 [compound 560, 6-(6-fluoro-2-methyl-1H-benzimidazol-1-yl)-N-(3-methylphenyl)pyrazin-2-amine] yielded an EC50 [1, 2] of 100 to 3000 nM and a melting point of 173 to 174 °C.

Work on COC(=O)c1ccc2nc(C(F)(F)F)c(-c3cncc(Nc4ccc(OC(F)F)cc4)n3)n2c1 [compound 178, methyl 3-(6-{[4-(difluoromethoxy)phenyl]amino}pyrazin-2-yl)-2-(trifluoromethyl)imidazo[1,2-a]pyridine-6-carboxylate] yielded an EC50 [1, 2] of 100 to 3000 nM and a melting point of 227 to 229 °C.

For COc1ccc(Nc2cncc(-c3c(C)noc3C)n2)cc1 [compound 636, 6-(3,5-dimethyl-1,2-oxazol-4-yl)-N-(4-methoxyphenyl)pyrazin-2-amine], the EC50 [1, 2] was 10 to 100 nM and the melting point was 154 to 155 °C.

With Cc1nc2ccc(F)cn2c1-c1cncc(Nc2ccc(C(F)(F)F)cc2)n1 [compound 244, 6-(6-fluoro-2-methylimidazo[1,2-a]pyridin-3-yl)-N-[4-(trifluoromethyl)phenyl]pyrazin-2-amine] the EC50 [1, 2] was 1 to 10 nM and the melting point was 160 to 162 °C.

Cc1nn(Cc2ccncc2)c(C)c1-c1cncc(Nc2ccc(C(F)(F)F)cc2)n1 [compound 403, 6-[3,5-dimethyl-1-(pyridin-4-ylmethyl)-1H-pyrazol-4-yl]-N-[4-(trifluoromethyl)phenyl]pyrazin-2-amine] showed an EC50 [1, 2] of 10 to 100 nM and a melting point of 66 to 67 °C.

CCOC(=O)n1nc(C)c(-c2cncc(Nc3ccc(C(F)(F)F)cc3)n2)c1C [compound 278, ethyl 3,5-dimethyl-4-(6-{[4-(trifluoromethyl)phenyl]amino}pyrazin-2-yl)-1H-pyrazole-1-carboxylate] showed an EC50 [1, 2] of 100 to 3000 nM and a melting point of 122 to 123 °C.

Compound Cc1nc2ccc(F)cn2c1-c1cc(C#N)cc(Nc2ccc(C(F)(F)F)c(F)c2)n1 [compound 312, 2-(6-fluoro-2-methylimidazo[1,2-a]pyridin-3-yl)-6-{[3-fluoro-4-(trifluoromethyl)phenyl]amino}pyridine-4-carbonitrile] has an EC50 [1, 2] of 10 to 100 nM and a melting point of 245 to 249 °C.

For Cc1nn(CC(F)(F)F)c(C)c1-c1cncc(Nc2ccc(C(F)(F)F)cc2)n1 [compound 253, 6-[3,5-dimethyl-1-(2,2,2-trifluoroethyl)-1H-pyrazol-4-yl]-N-[4-(trifluoromethyl)phenyl]pyrazin-2-amine], the EC50 [1, 3] was 1 to 10 nM and the melting point was 90 to 91 °C.

COc1ccc(Nc2cccc(-c3c(C(F)(F)F)nc4ccc(OC)cn34)n2)cc1 [compound 104, N-(4-methoxyphenyl)-6-[6-methoxy-2-(trifluoromethyl)imidazo[1,2-a]pyridin-3-yl]pyridin-2-amine] showed an EC50 [1, 2] of 10 to 100 nM and a melting point of 139 to 140 °C.

In the case of Fc1ccc2nc(C3CCC3)n(-c3cncc(Nc4ccc(C(F)(F)F)cc4)n3)c2c1 [compound 485, 6-(2-cyclobutyl-6-fluoro-1H-benzimidazol-1-yl)-N-[4-(trifluoromethyl)phenyl]pyrazin-2-amine], the EC50 [1, 2] is reported as 100 to 3000 nM and the melting point is reported as 289 to 291 °C.

In the case of Fc1ccn2nc(C3CC3)c(-c3cncc(Nc4ccc(C(F)(F)F)cc4)n3)c2c1 [compound 535, 6-(2-cyclopropyl-5-fluoropyrazolo[1,5-a]pyridin-3-yl)-N-[4-(trifluoromethyl)phenyl]pyrazin-2-amine], the EC50 [1, 2] is reported as 10 to 100 nM and the melting point is reported as 122 to 125 °C.

Cc1nc2ccc(F)cn2c1-c1cc(C#N)cc(Nc2ccc(OC(F)F)c(F)c2)n1 [compound 311, 2-{[4-(difluoromethoxy)-3-fluorophenyl]amino}-6-(6-fluoro-2-methylimidazo[1,2-a]pyridin-3-yl)pyridine-4-carbonitrile] gave an EC50 [1, 2] of 1 to 10 nM and a melting point of 231 to 233 °C.

Compound CCc1nc(C)cn1-c1cncc(Nc2ccc(OC(F)F)cc2)n1 [compound 180, N-[4-(difluoromethoxy)phenyl]-6-(2-ethyl-4-methyl-1H-imidazol-1-yl)pyrazin-2-amine] has an EC50 [1, 2] of 100 to 3000 nM and a melting point of 168 to 169 °C.

For Cc1nc2ccc(F)cn2c1-c1cc(C#N)cc(Nc2ccc(Cl)cc2)n1 [compound 647, 2-[(4-chlorophenyl)amino]-6-(6-fluoro-2-methylimidazo[1,2-a]pyridin-3-yl)pyridine-4-carbonitrile], the EC50 [1, 2] was 10 to 100 nM and the melting point was 148 to 151 °C.

Work on Cc1nc2cc(F)ccc2n1-c1cncc(Nc2ccc(OC(F)F)cc2)n1 [compound 205, N-[4-(difluoromethoxy)phenyl]-6-(5-fluoro-2-methyl-1H-benzimidazol-1-yl)pyrazin-2-amine] yielded an EC50 [1, 2] of 10 to 100 nM and a melting point of 239 to 241 °C.

Compound Fc1cc(F)c2nc(C3CC3)n(-c3cncc(Nc4ccc(OC(F)F)cc4)n3)c2c1 [compound 462, 6-(2-cyclopropyl-4,6-difluoro-1H-benzimidazol-1-yl)-N-[4-(difluoromethoxy)phenyl]pyrazin-2-amine] has an EC50 [1, 2] of 10 to 100 nM and a melting point of 202 to 203 °C.

CCc1nc(C)cn1-c1cncc(Nc2ccc(C(F)(F)F)cc2)n1 [compound 179, 6-(2-ethyl-4-methyl-1H-imidazol-1-yl)-N-[4-(trifluoromethyl)phenyl]pyrazin-2-amine] gave an EC50 [1, 3] of 100 to 3000 nM and a melting point of 207 to 208 °C.

CCc1nc2ccc(F)cc2n1-c1cncc(Nc2ccc(OC)cc2)n1 [compound 621, 6-(2-ethyl-6-fluoro-1H-benzimidazol-1-yl)-N-(4-methoxyphenyl)pyrazin-2-amine] gave an EC50 [1, 2] of less than 1 nM and a melting point of 218 to 220 °C.
